Structures can show the parent of a compound that is named as a salt.
test system: mast cells; assay: Inhibitory effect on histamine release from sensitized rat peritoneal mast cells (DNP-As antigen challenge); assay type: cell-based, Wistar rats; conditions: Mast cell; rat peritoneal cells passively sensitized with anti-DNP-As rat serum; compound 1 min before DNP-As; 37° C.
Method: The inhibitory effect of histamine release was examined with the under method, while using disodium cromoglycate(II), tranilast (III), and TA-5707F(IV)as reference drugs. Mixed peritoneal cells obtained from male Wistar rats weighing 350-400 g were sensitized by incubating for 2 hr at 37° C. with anti-DNP-As rat serum (produced according to the method of Tada and Okumura [Tada, T. and Okmura, K.: J. Immunology, 106,1002 (1971)]. The cell suspension containing about 1×10^5 mast cells/ml was prepared in Hepes Tyrode buffer containing heparin (10 unit/ml ) and BSA (0.3%). This suspension was divided into 0.8 ml aliquots in separate polyethylene tubes. […] After incubation at 37° C. for 1 min, 0.1 ml of DNP-As solution (50μg/ml) were added, followed by incubation at 37° C. for 2 min. The reactio was terminated by adding 2 ml of the cold buffer. The supernatants were separated by centrifugation, the cell pellets were resuspended in 3 ml buffer and placed for 3 min in the heating block (100° C.) to release the residual histamine into cells. The histamine was quantitated using the spedrofluorometric technique of modified Shore's method. The IC 50 was obtained from the dose-response curve.

| SMILES | IC50 [nM] |
| --- | --- |
| CN(C)c1cncc(C(=O)Nc2nnn[nH]2)n1 [Example 6, 6-(Dimethylamino)-N-(1H-5-tetrazolyl)pyrazine-2-carboxamide] | 0.47 |
| CCNc1cncc(C(=O)Nc2nnn[nH]2)n1 [Example 3, 6-(Ethylamino)-N-(1H-5-tetrazolyl)pyrazine-2-carboxamide] | 2 |
| CNc1cncc(C(=O)Nc2nnn[nH]2)n1 [Example 2, 6-(Methylamino)-N-(1H-5-tetrazolyl)pyrazine-2-carboxamide] | 2.5 |
| O=C(Nc1nnn[nH]1)c1cncc(N2CCCC2)n1 [Example 8 (free), 6-(1-Pyrrolidinyl)-N-(1H-5-tetrazolyl)pyrazine-2-carboxamide] | 1.2 |
| O=C(Nc1nnn[nH]1)c1cncc(Nc2ccccc2)n1 [Example 16, 6-(Phenylamino)-N-(1H-5-tetrazolyl)pyrazine-2-carboxamide] | 0.062 |
| CCCNc1cncc(C(=O)Nc2nnn[nH]2)n1 [Example 4, 6-(n-Propylamino)-N-(1H-5-tetrazolyl)pyrazine-2-carboxamide] | 17 |
| CC(C)Nc1cncc(C(=O)Nc2nnn[nH]2)n1 [Example 5, 6-(Isopropylamino)-N-(1H-5-tetrazolyl)pyrazine-2-carboxamide] | 5 |
| CN1CCN(c2cncc(C(=O)Nc3nnn[nH]3)n2)CC1 [Example 15, 6-(4-Methyl-1-piperazinyl)-N-(1H-5-tetrazolyl)pyrazine-2-carboxamide hydrochloride hydrate] | 36 |
| COc1ccc(/C=C/C(=O)Nc2ccccc2C(=O)O)cc1OC [tranilast (III), tranilast, reference compound] | 24000 |
| O=C(Nc1nnn[nH]1)c1cncc(N2CCOCC2)n1 [Example 14, 6-(4-Morpholinyl)-N-(1H-5-tetrazolyl)pyrazine-2-carboxamide] | 36 |
| CCN(CC)c1cncc(C(=O)Nc2nnn[nH]2)n1 [Example 7, 6-(Diethylamino)-N-(1H-5-tetrazolyl)pyrazine-2-carboxamide] | 15 |
| Cc1cccc(C(=O)Nc2nnn[nH]2)n1 [TA-5707F (IV), 6-methyl-N-(1H-5-tetrazolyl) pyridine-2-carboxamide, reference compound] | 46 |
| O=C(O)c1cc(=O)c2c(OCC(O)COc3cccc4oc(C(=O)O)cc(=O)c34)cccc2o1 [disodium cromoglycate (II), disodium cromoglycate, reference compound] | 190 |
| O=C(Nc1nnn[nH]1)c1cncc(N2CCCCC2)n1 [Example 9, 6-(1-Piperidinyl)-N-(1H-5-tetrazolyl)pyrazine-2-carboxamide] | 5.6 |

test system: not listed separately; assay: Acute toxicity test (oral); conditions: mouse, in vivo, po
Method: Male ICR mice 5 weeks old were used as 5 animals at a group. The compounds were administered orally at each dosage.

| SMILES | LD50 [mg/kg] |
| --- | --- |
| O=C(Nc1nnn[nH]1)c1cncc(N2CCCC2)n1.[Na] | > 2000 |

same assay, conditions: mouse, in vivo; male ICR mice 5 weeks old, oral

| SMILES | LD50 [mg/kg] |
| --- | --- |
| O=C(Nc1nnn[nH]1)c1cncc(N2CCCC2)n1 [Example 8 (free), 6-(1-Pyrrolidinyl)-N-(1H-5-tetrazolyl)pyrazine-2-carboxamide] | > 2000 |

test system: not given; assay: not given; conditions: daily dosage about 300 mg, oral; cited from earlier work

| SMILES | side effects in the digestive system |
| --- | --- |
| COc1ccc(/C=C/C(=O)Nc2ccccc2C(=O)O)cc1OC [tranilast (III), tranilast, reference compound] | nausea, abdominal pain, and gastric discomfort |

same assay, conditions: human, in vivo; cited from earlier work

| SMILES | physical discomfort in the throat |
| --- | --- |
| O=C(O)c1cc(=O)c2c(OCC(O)COc3cccc4oc(C(=O)O)cc(=O)c34)cccc2o1 [disodium cromoglycate (II), disodium cromoglycate, reference compound] | feeling of physical discomfort in the throat |

From US4792547A, “Pyrazine-2-carboxamide derivatives useful in treating allergic disease” (priority 1985, dated 1988)
